Literature values as cited in patent publication US20090181887A1, “USE OF A GLP-1 MOLECULE FOR TREATMENT OF BILIARY DYSKINESIA AND/OR BILIARY PAIN/DISCOMFORT” (Gastrotech Pharma A/S, priority 2005, published 2009).
Where no end group is shown, it is not given here.

Settings: in man; Wettergren et al, 1993; Gutniak et al, 1996

Substance: glucagon-like peptide-1 (HAEGTFTSDVSSYLEGQAAKEFIAWLVKGR-NH2; ends and bridges not checked; UniProt P01275 98-127, looked up) [GLP-1, gastrointestinal peptide hormone; natural forms GLP-1 (7-36)amide and GLP-1 (7-37)]
- slowing of gastric emptying: 50%
